Structures can show the parent of a compound that is named as a salt. Marks after values point to notes of the source that are not given here.
Key:
[1] = test system: OVX-induced osteoporotic ddY mice; test: Femur histopathology-histomorphometry in OVX mice; assay type: in vivo
Experimental: (§1) Risedronate sodium (2.5 mg/kg) served as a reference compound. […] Histopathology and histomorphometrical analyses including trabecular bone volume (BV/TV), trabecular bone number (Tb.N), trabecular bone length (Tb.Le), trabecular bone thickness (Tb.Th), cortical bone thickness (Ct.Th), OC number (N.Oc), bone mineral density (BMD) and bone strength (failure load, FL) were conducted.
(§2) The study was reviewed and approved by the Institutional Animal Care and Use Committee (IACUC) of Center for Laboratory Animal Sciences, Ewha Industry-University Cooperation Foundation, Ewha Womans University. Experimental methods were carried out in accordance with the approved ethic guidelines in Ewha Industry-University Cooperation Foundation, Ewha Womans University. Beginning 4 weeks after OVX, the female ddY mice received 2.5, 5, 10, or 20 mg/kg of #18–278, 2.5 mg/kg of risedronate, or vehicle once daily for 28 days. The Changes in body weight, bone weight, bone mineral density (BMD), failure load (FL), bone calcium (Ca), inorganic phosphorus (P) contents, histology and histomorphology were monitored. Serum osteocalcin and bone specific alkaline phosphatase (bALP) were monitored in mice receiving Ewha-18278.
The left side of femur of each mouse was separated and fixed in 10% neutral buffered formalin and decalcified in a solution comprised of 24.4% formic acid and 0.5N sodium hydroxide for 5 days, with spent solution replaced with fresh solution each day. Each sample was embedded in paraffin, sectioned to a thickness of 3–4 μm and exposed to with Hematoxylin & Eosin (H&E) stain. Histomorphometry was conducted as for bone mass and structure with bone resorption in a uniform area of epiphyseal regions of femur (growth plate regions were excluded). Cortical bone thickness was measured in the mid-shaft region of the femur.

[2] = test system: BMMs; test: RANKL-induced OC differentiation, TRAP staining; assay type: cell-based, C57BL/6 mice; settings: M-CSF 30 ng/ml, RANKL 100 ng/ml, dose-dependent
Experimental: RANKL-induced ROS generation was monitored by confocal microscopic analysis of DCF fluorescence. Data represent three repeated experiments and are shown as mean ± SD (n = 3). […] (D) TRAP^+ MNCs containing more than 3 nuclei were counted. Data represent mean ± S.D., *P < 0.005. Scale bar, 500 μm.
Primary BMMs were obtained from 6- to 8-week-old male C57BL/6 mice (The Jackson Laboratory, Bar Harbor, […], USA) as described previously. In brief, bone marrow cells were cultured in α-MEM (HyClone, Logan, UT, USA) containing 10% fetal bovine serum (FBS) (HyClone, Logan UT, USA) with 30 ng/ml macrophage-colony stimulating facor (M-CSF) for 3 days to obtain OC precursor cells of monocyte/macrophage lineage. For OC differentiation, the precursor cells were treated with 100 ng/ml RANKL in the presence of M-CSF with or without for 3–4 days. OCs were fixed with 4% paraformaldehyde and stained for tartrate-resistant acid phosphatase (TRAP) using a leukocyte acid phosphatase cytochemistry kit (Sigma-Aldrich, St. Louis, MO, USA) according to the manufacturer’s instructions. TRAP-positive multinucleated cells (TRAP^+ MNCs) containing three or more nuclei were counted as OC-like cells.

[3] = test system: OVX-induced osteoporotic ddY mice; test: Femur weights (wet, dry, ash) in OVX mice; assay type: in vivo
Experimental: The right sides of femur and tibia were weighed and then dried at 120 °C for 8 hours. The dried bones were carbonized at 800 °C for 6 hours in a furnace (Daihan Scientific, Korea) to detect ash absolute weights, after measurement of BMD and failure load. To reduce the individual body weight differences, the relative weight (%) was calculated using body weight at sacrifice and absolute weight as [Relative bone weights = (Absolute bone weight/Body weight at sacrifice) ×100]. In addition, ashed bones were ground and dissolved in nitric acid. In diluted solution, Ca and P contents were calculated (mg/g bone) using an orthocresolphthalein complex and enzyme methods, respectively. The Ca/P ratio (%) was calculated as (Tibia Ca contents/Tibia P contents) ×100.

[4] = test system: Pre-OCs; test: OC fusion assay; assay type: cell-based, C57BL/6 mice; settings: 10 μM, 24 hours
Experimental: Cells were stained for TRAP using a leukocyte acid phosphatase cytochemistry kit (Sigma-Aldrich, St. Louis, MO, USA) according to the manufacturer’s instructions. […]
Scale bar, 500 μm. (C,D) Mature OCs were generated with M-CSF and RANKL, cells were seeded onto dentine discs and further cultured with […]
Cells were stained with hematoxylin for visualization of pit formation (C). The area of resorption pits were measured with Image-Pro Plus 4.5 (D). Scale bar, 500
μm. Data represent mean ± S.D., n.s., not significant. […]

[5] = test system: OVX-induced osteoporotic ddY mice; test: Number of OBs in cortical bone lining of OVX mice (H&E); settings: mouse, in vivo
Experimental: Sham OVX Risedronate 20 mg/kg 10 mg/kg 5 mg/kg 2.5 mg/kg20.0mg/kg 10.0mg/kg 5.0mg/kg 2.5mg/kg […]
Supplementary Figure S8. […] CB number was […]
counted in osteoblastic lining in cortical bone with H&E staining. a p<0.005 and b p<0.005 as compared with OVX and Risendronate, respectively, c p<0.005 and d p<0.005 as compared with 20

[6] = test system: OVX-induced osteoporotic ddY mice; test: OVX-induced osteoporosis in ddY mice, overall anti-osteoporotic effect; assay type: in vivo
Experimental: as §1, §2

[7] = 2.5 mg/kg oral once daily 28 days
[8] = 5 mg/kg oral once daily 28 days
[9] = 10 mg/kg oral once daily 28 days
[10] = 20 mg/kg oral once daily 28 days

## CCCc1c(-c2ccccc2)nn(-c2ccccn2)c1O [Ewha-18278, 3-phenyl-1-(pyridin-2-yl)-4-propyl-1H-5-hydroxypyrazole HCl]
[1]; [7]
  BV/TV (trabecular bone volume): 23.62 ± 3.63 ^a %
  Ct.Th (cortical bone thickness): 136.48 ± 10.32 ^a μm
  N.OC/BS (osteoclast cell number, N/epiphyseal): 13.75 ± 2.25 ^e numbers
  Tb.N (trabecular bone number, N/epiphyseal): 9.75 ± 1.67 ^e numbers
  Tb.Th (trabecular bone thickness): 40.98 ± 5.94 ^a μm
[1]; [8]
  BV/TV (trabecular bone volume): 29.06 ± 2.72 ^ac %
  Ct.Th (cortical bone thickness): 159.04 ± 13.45 ^ac μm
  N.OC/BS (osteoclast cell number, N/epiphyseal): 10.63 ± 2.77 ^eg numbers
  Tb.N (trabecular bone number, N/epiphyseal): 11.25 ± 1.04 ^eh numbers
  Tb.Th (trabecular bone thickness): 52.98 ± 8.96 ^ac μm
[1]; [9]
  BV/TV (trabecular bone volume): 33.63 ± 3.51 ^c %
  Ct.Th (cortical bone thickness): 165.52 ± 12.06 ^ac μm
  N.OC/BS (osteoclast cell number, N/epiphyseal): 6.63 ± 1.30 ^eg numbers
  Tb.N (trabecular bone number, N/epiphyseal): 15.38 ± 1.60 ^eg numbers
  Tb.Th (trabecular bone thickness): 68.14 ± 11.23 ^ac μm
[1]; [10]
  BV/TV (trabecular bone volume): 34.07 ± 3.89 ^c %
  Ct.Th (cortical bone thickness): 198.06 ± 12.51 ^c μm
  N.OC/BS (osteoclast cell number, N/epiphyseal): 5.63 ± 1.41 ^fg numbers
  Tb.N (trabecular bone number, N/epiphyseal): 16.63 ± 1.19 ^eg numbers
  Tb.Th (trabecular bone thickness): 71.98 ± 12.20 ^ac μm
[2]
  formation of TRAP-positive OCs with >3 nuclei: inhibited the formation of TRAP-positive OCs
[3]; [7]
  Femur absolute weights, Ash: 0.030 g
  Femur absolute weights, Dry: 0.065 g
  Femur absolute weights, Wet: 0.097 g
[3]; [8]
  Femur absolute weights, Ash: 0.037 g
  Femur absolute weights, Dry: 0.065 g
  Femur absolute weights, Wet: 0.093 g
[3]; [9]
  Femur absolute weights, Ash: 0.038 g
  Femur absolute weights, Dry: 0.067 g
  Femur absolute weights, Wet: 0.096 g
[3]; [10]
  Femur absolute weights, Ash: 0.038 g
  Femur absolute weights, Dry: 0.067 g
  Femur absolute weights, Wet: 0.096 g
[4]
  fusion of OCs: did not affect
[5]
  number of OBs in tibia and femur compared to OVX control mice: increased
[6]; 2.5 mg/kg
  anti-osteoporotic effects: did not produce obvious favorable anti-osteoporotic effects
[6]; 10 mg/kg/day for 28 days
  anti-osteoporotic effects compared to risedronate (2.5 mg/kg/day for 28 days): similar
[6]; OVX mice
  cortical bone thickness compared to risedronate: significantly increased cortical bone thickness
[6]; compared to control mice
  number of OCs in the tibia and femur: decreased number of OCs
[6]; oral once daily 28 days, OVX mice
  optimal effective dosage: 10 mg/kg
